Results: article PMC6440935, “Characterization and phase I study of CLR457, an orally bioavailable pan-class I PI3-kinase inhibitor” (Investigational New Drugs, 2018)
Where two headings read alike, the source gives them in different places.

[1] = drug-related, All Patients, N = 31
[2] = drug-related, all patients N = 31
[3] = suspected related, all patients

Description: The primary objective was to define the maximum tolerated dose (MTD). Secondary objectives included assessments for safety, tolerability, pharmacokinetic (PK) profile, and preliminary antitumor activity.
Patients had histologically documented locally advanced or metastatic solid tumors harboring an activating PIK3CA mutation or amplification, PTEN loss of function, c-MET activation, [16, 17] […] Other key inclusion criteria included age ≥ 18 years, Eastern Cooperative Oncology Group performance status (ECOG-PS) ≤2, adequate organ function, measurable or non-measurable disease as determined by Response Evaluation Criteria in Solid Tumors (RECIST) version 1.1.
The starting dose for CLR457 was 5 mg QD, based on preclinical toxicology studies in accordance with ICH guidelines, and was administered at the same time each day ±2 h in a fasted state. Various doses were planned up to 300 mg QD until MTD determination.
Safety was evaluated by incidence, nature, severity, and relatedness of adverse events (AEs), and graded according to National Cancer Institute - Common Terminology Criteria for Adverse Events (NCI CTCAE) v4.0.3. DLTs were defined as any hematologic or non-hematologic ≥ Grade 3 AE assessed as possibly related to CLR457 that occurred within the first cycle (28 days) of treatment. In addition, uncontrolled (> 14 days) Grade 2 rash or hyperglycemia were also considered DLTs. All AEs regardless of attribution were collected until 30 days following the last administration of treatment or study discontinuation/termination.
Descriptive methods were used to tabulate toxicity and response endpoints in the clinical trial. All patients treated with CLR457 were included for safety. […] Dose escalation was guided by an adaptive Bayesian logistic regression model (BLRM) incorporating the escalation with overdose control (EWOC) principle. […] The study data (including DLTs during cycle 1 and other safety and PK data) were reviewed by the sponsor and trial investigators at each dose level. […] The Full Analysis Set (FAS) included all patients who received at least one dose of CLR457. Safety set included all patients who received at least one dose of CLR457 and had at least one valid post-baseline assessment. The Dose-determining set (DDS) included all patients from the safety set who either met the following minimum exposure criterion and had sufficient safety evaluations, or experienced a DLT during Cycle 1 (the first 28 days of dosing). The Pharmacokinetic analysis set included all patients who had at least one blood sample providing evaluable PK data.

## C[C@H]1OC(=O)N(c2cc(-c3cnc(N)nc3C(F)(F)F)nc(N3CCOCC3)n2)[C@H]1CO [CLR457]
drug-related, 100 mg, N = 11
  Dehydration, All Grade: 1 (9.1) n (%)
  Dehydration, Grade ≥ 3: 0 n (%)
  Diarrhea, All Grade: 5 (45.5) n (%)
  Diarrhea, Grade ≥ 3: 1 (9.1) n (%)
  Dry mouth, All Grade: 1 (9.1) n (%)
  Dry mouth, Grade ≥ 3: 0 n (%)
  Dry skin, All Grade: 1 (9.1) n (%)
  Dry skin, Grade ≥ 3: 0 n (%)
  Dysgeusia, All Grade: 3 (27.3) n (%)
  Dysgeusia, Grade ≥ 3: 0 n (%)
  Fatigue, All Grade: 4 (36.4) n (%)
  Fatigue, Grade ≥ 3: 1 (9.1) n (%)
  Headache, All Grade: 1 (9.1) n (%)
  Headache, Grade ≥ 3: 0 n (%)
  Hyperglycemia, All Grade: 4 (36.4) n (%)
  Hyperglycemia, Grade ≥ 3: 1 (9.1) n (%)
  Hypomagnesaemia, All Grade: 1 (9.1) n (%)
  Hypomagnesaemia, Grade ≥ 3: 0 n (%)
  Maculo-papular rash, All Grade: 7 (63.6) n (%)
  Maculo-papular rash, Grade ≥ 3: 5 (45.5) n (%)
  Nausea, All Grade: 4 (36.4) n (%)
  Nausea, Grade ≥ 3: 0 n (%)
  Pneumonitis, All Grade: 2 (18.2) n (%)
  Pneumonitis, Grade ≥ 3: 2 (18.2) n (%)
  Pruritus, All Grade: 3 (27.3) n (%)
  Pruritus, Grade ≥ 3: 0 n (%)
  Pyrexia, All Grade: 3 (27.3) n (%)
  Pyrexia, Grade ≥ 3: 0 n (%)
  Rash, All Grade: 3 (27.3) n (%)
  Rash, Grade ≥ 3: 1 (9.1) n (%)
  Stomatitis, All Grade: 9 (81.8) n (%)
  Stomatitis, Grade ≥ 3: 0 n (%)
  Vomiting, All Grade: 2 (18.2) n (%)
  Vomiting, Grade ≥ 3: 0 n (%)
  Weight decreased, All Grade: 0 n (%)
  Weight decreased, Grade ≥ 3: 0 n (%)
[1]
  Asthenia, All Grade: 3 (9.7) n (%)
  Asthenia, Grade ≥ 3: 0 n (%)
  Chills, All Grade: 2 (6.5) n (%)
  Chills, Grade ≥ 3: 0 n (%)
  Colitis, All Grade: 2 (6.5) n (%)
  Colitis, Grade ≥ 3: 2 (6.5) n (%)
  Cough, All Grade: 2 (6.5) n (%)
  Cough, Grade ≥ 3: 0 n (%)
  Decreased appetite, All Grade: 7 (22.6) n (%)
  Decreased appetite, Grade ≥ 3: 0 n (%)
  Decreased neutrophil count, All Grade: 2 (6.5) n (%)
  Decreased neutrophil count, Grade ≥ 3: 1 (3.2) n (%)
  Dehydration, All Grade: 2 (6.5) n (%)
  Dehydration, Grade ≥ 3: 1 (3.2) n (%)
  Diarrhea, All Grade: 12 (38.7) n (%)
  Diarrhea, Grade ≥ 3: 2 (6.5) n (%)
  Dry mouth, All Grade: 2 (6.5) n (%)
  Dry mouth, Grade ≥ 3: 0 n (%)
  Dry skin, All Grade: 2 (6.5) n (%)
  Dry skin, Grade ≥ 3: 0 n (%)
  Dysgeusia, All Grade: 4 (12.9) n (%)
  Dysgeusia, Grade ≥ 3: 0 n (%)
  Fatigue, All Grade: 9 (29.0) n (%)
  Fatigue, Grade ≥ 3: 1 (3.2) n (%)
  Headache, All Grade: 2 (6.5) n (%)
  Headache, Grade ≥ 3: 0 n (%)
  Hyperglycemia, All Grade: 7 (22.6) n (%)
  Hyperglycemia, Grade ≥ 3: 1 (3.2) n (%)
  Hypomagnesaemia, All Grade: 2 (6.5) n (%)
  Hypomagnesaemia, Grade ≥ 3: 0 n (%)
  Maculo-papular rash, All Grade: 11 (35.5) n (%)
  Maculo-papular rash, Grade ≥ 3: 8 (25.8) n (%)
  Nausea, All Grade: 9 (29.0) n (%)
  Nausea, Grade ≥ 3: 0 n (%)
  Pneumonitis, All Grade: 2 (6.5) n (%)
  Pneumonitis, Grade ≥ 3: 2 (6.5) n (%)
  Pruritus, All Grade: 5 (16.1) n (%)
  Pruritus, Grade ≥ 3: 0 n (%)
  Pyrexia, All Grade: 4 (12.9) n (%)
  Pyrexia, Grade ≥ 3: 0 n (%)
  Rash, All Grade: 6 (19.4) n (%)
  Rash, Grade ≥ 3: 2 (6.5) n (%)
  Stomatitis, All Grade: 14 (45.2) n (%)
  Stomatitis, Grade ≥ 3: 0 n (%)
  Vomiting, All Grade: 5 (16.1) n (%)
  Vomiting, Grade ≥ 3: 0 n (%)
  Weight decreased, All Grade: 2 (6.5) n (%)
  Weight decreased, Grade ≥ 3: 0 n (%)
[2]
  Decreased appetite, any grade: 22.6%
  Diarrhea, any grade: 38.7%
  Fatigue, any grade: 29%
  Hyperglycemia, any grade: 22.6%
  Maculo-papular rash, any grade: 35.5%
  Nausea, any grade: 29%
  Stomatitis, any grade: 45.2%
In vivo
  Drug-related AEs leading to discontinuation of study treatment: 16.1%
  SAEs suspected to be related to the study treatment: 22.6%
Of 31 patients treated, 5-100 mg QD
  Patients with DLTs: 4 patients
[3]
  SAE colitis: 6.5%
  SAE diarrhea: 6.5%
  SAE pneumonitis: 6.5%
